Broadly, the Ki is the equilibrium dissociation constant of an inhibitor or competing ligand from its target. As usually defined, the IC50 is the concentration that gives 50% inhibition.

T1 sequence (P18825 whole entry): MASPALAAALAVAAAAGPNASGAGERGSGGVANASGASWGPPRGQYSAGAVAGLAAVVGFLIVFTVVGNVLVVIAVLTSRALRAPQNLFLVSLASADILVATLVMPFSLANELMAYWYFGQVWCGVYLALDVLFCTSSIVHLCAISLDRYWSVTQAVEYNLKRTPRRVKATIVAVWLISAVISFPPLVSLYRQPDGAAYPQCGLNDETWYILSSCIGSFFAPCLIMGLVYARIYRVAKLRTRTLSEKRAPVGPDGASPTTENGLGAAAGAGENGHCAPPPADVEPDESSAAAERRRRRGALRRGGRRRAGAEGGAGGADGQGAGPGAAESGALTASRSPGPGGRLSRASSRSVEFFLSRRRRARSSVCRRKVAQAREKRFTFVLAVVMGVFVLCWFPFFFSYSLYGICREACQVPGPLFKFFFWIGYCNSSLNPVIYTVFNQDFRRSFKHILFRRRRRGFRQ

The target in one test is T1, human ADRA2C receptor (Homo sapiens (Human), UniProt P18825). The test is described as follows: In vitro radioligand binding study, competition assay with [3H] rauwolscine (Eurofins Panlabs). The note with it: calculated from IC50 and Kd with the Cheng Prusoff equation; [3H] rauwolscine competition; read-out: hARα2C Ki. The protocol:
B-1 In Vitro Radioligand Binding Studies for Determination of the Dissociation Constants Ki at the Human Adrenoreceptor ADRA2C (Eurojins Panlabs Discovery Services, Taiwan, Ltd)
A competition assay based on [^3H] rauwolscine as radioliganden was used to determine the binding affinity of the test substances at the human ADRA2C receptor.
To configure the competition assay, the equilibrium dissociation constant Kd of the radioligand [^3H] rauwolscine was determined in a saturation experiment. To this end, homogenates of CHO-K1 cells recombinantly expressing the human ADRA2C receptor were incubated with increasing concentrations of the radiotracers for 1 h at 4° C. in binding buffer (50 mM Tris-HCl, 1 mM EDTA, pH 7.4). Unspecific binding was determined by addition of an excess of the not radioactively labelled ligand prazosin (10 μM). The radioactivity was determined in a scintiation counter.
The competition experiments were carried out in the presence of 0.5 nM [^3H] rauwolscine and increasing concentrations of the test substances to be characterized under the conditions described above.
From the IC50 value measured in the competition experiment and the Kd value from the saturation experiment, the equilibrium constant Ki of the inhibitor, which describes the affinity of the test substances to the receptor, was calculated using the Cheng Prusoff equation [Cheng Y, Prusoff W H. Relationship between the inhibition constant (Ki) and the concentration of inhibitor which causes 50 percent inhibition (ISO) of an enzymatic reaction. […] PMID 4202581 PMID: 4202581].
`CCOC1CCCN(C2CCN(c3ncc(C(=O)NCc4ncc(F)cc4F)s3)CC2)C1` (single isomer, unassigned) [Example 124, ent-N-[(3,5-Difluoropyridin-2-yl)methyl]-2-(3-ethoxy[1,4′-bipiperidin]-1′-yl)-1,3-thiazole-5-carboxamide]: the Ki is 2.3 nM.
As to `C[C@@H]1CCCN(C2CCN(c3ncc(C(=O)NCc4ncc(F)cc4F)s3)CC2)C1` [Example 1, N-[(3,5-Difluoropyridin-2-yl)methyl]-2-[(3R)-3-methyl[1,4′-bipiperidin]-1′-yl]-1,3-thiazole-5-carboxamide], the Ki was 24 nM.
Turning to `O=C(NCc1ncc(F)cc1F)c1cnc(N2CCC(N3CCC[C@@H](CF)C3)CC2)s1` [Example 41, N-[(3,5-Difluoropyridin-2-yl)methyl]-2-[(3R)-3-(fluoromethyl)[1,4′-bipiperidin]-1′-yl]-1,3-thiazole-5-carboxamide], the Ki is 56 nM.
Consider `O=C(NCc1ncc(F)cc1F)c1cnc(N2CCC(N3CCCC4(CC4)C3)CC2)s1` [Example 64, 2-[4-(5-Azaspiro[2.5]octan-5-yl)piperidin-1-yl]-N-[(3,5-difluoropyridin-2-yl)methyl]-1,3-thiazole-5-carboxamide], for which the Ki was 2.8 nM.

Staying with this test, now noted: displacement of 0.5 nM [3H] rauwolscine; homogenates of CHO-K1 cells expressing human ADRA2C; 1 h, 4° C.; read-out: hARα2C IC50.
Turning to `CCOC1CCCN(C2CCN(c3ncc(C(=O)NCc4ncc(F)cc4F)s3)CC2)C1` (single isomer, unassigned) [Example 124, ent-N-[(3,5-Difluoropyridin-2-yl)methyl]-2-(3-ethoxy[1,4′-bipiperidin]-1′-yl)-1,3-thiazole-5-carboxamide], the IC50 came out at 5.1 nM.
Same read-out and setting: the result for `C[C@@H]1CCCN(C2CCN(c3ncc(C(=O)NCc4ncc(F)cc4F)s3)CC2)C1` [Example 1, N-[(3,5-Difluoropyridin-2-yl)methyl]-2-[(3R)-3-methyl[1,4′-bipiperidin]-1′-yl]-1,3-thiazole-5-carboxamide] reads 54 nM.
For the compound `O=C(NCc1ncc(F)cc1F)c1cnc(N2CCC(N3CCC[C@@H](CF)C3)CC2)s1` [Example 41, N-[(3,5-Difluoropyridin-2-yl)methyl]-2-[(3R)-3-(fluoromethyl)[1,4′-bipiperidin]-1′-yl]-1,3-thiazole-5-carboxamide], the IC50 worked out at 130 nM.
In the case of `O=C(NCc1ncc(F)cc1F)c1cnc(N2CCC(N3CCCC4(CC4)C3)CC2)s1` [Example 64, 2-[4-(5-Azaspiro[2.5]octan-5-yl)piperidin-1-yl]-N-[(3,5-difluoropyridin-2-yl)methyl]-1,3-thiazole-5-carboxamide], the 50% inhibitory concentration (IC50) was determined as 6.2 nM.

A further test concerns the target T1, human ADRA2C receptor. The test is described as follows: In vitro activity assay, inhibition of recombinant ADRA2C (CHO-K1 cells coexpressing Gαq and aequorin, noradrenaline-induced bioluminescence). Format: cell-based. Particulars: inhibition of agonist (noradrenaline)-induced bioluminescence signal; some values are means of multiple determinations; read-out: ARα2C IC50. How it is done: B-2. In Vitro Activity Assay to Determine the Inhibition of Recombinant ADRA2C
The human ADRA2C receptor belongs to the G protein (guanine-dependent protein)-coupled receptors, the main function of which is the transduction of signals into the interior of the cell.
The investigations of the inhibition of the recombinant human ADRA2C receptors were carried out with stably transfected CHO-K1 cells coexpressing the Gαq protein and the calcium-sensitive photoprotein aequorin. In this recombinant system, binding of the agonists noradrenaline to the ADRA2C receptor leads, after activation of a signal cascade, to calcium release from intracellular stores, which is detected by the intracellular calcium sensor aequorin as a bioluminescent signal. The method is described in detail in the reference below. [Wunder F., Kalthof B., Muller T., Hueser J. Functional Cell-Based Assays in Microliter Volumes for Ultra-High Throughput Screening. Combinatorial Chemistry & High Throughput Screening, Volume 11, Number 7, 2008, pp. 495-504(10). doi.org/10.2174/138620708785204054]
The activity of the test substances was determined via their ability to inhibit the agonist-induced increase of the bioluminescence signal. The concentration which can block half of this signal increase is referred to as IC50. The IC50 value is calculated using the 4 parameter logistic function (Hill function):
Top=upper threshold, Bottom=lower threshold, Slope=slope, IC50=turning point
Take `C[C@@H]1CCCN(C2CCN(c3ncc(C(=O)NCc4cc(Cl)ccc4F)s3)CC2F)C1` (mixture of isomers) [Example 113, diamix-N-(5-Chloro-2-fluorobenzyl)-2-[(3R)-3′-fluoro-3-methyl[1,4′-bipiperidin]-1′-yl]-1,3-thiazole-5-carboxamide]: the IC50 was determined as 0.61 nM.
In the case of `O=C(NCc1ncc(F)cc1F)c1cnc(N2CCC(N3CCCC(C4CC4)C3)CC2)s1` (racemic) [Example 137, 2-(3-cyclopropyl[1,4′-bipiperidin]-1′-yl)-N-[(3,5-difluoropyridin-2-yl)methyl]-1,3-thiazole-5-carboxamide], the concentration for half-maximal inhibition (IC50) was found to be 19 nM.
Take `O=C(NCc1ncc(F)cc1F)c1cnc(N2CCC(N3CCCC(C4CCC4)C3)CC2)s1` (racemic) [Example 138, 2-(3-cyclobutyl[1,4′-bipiperidin]-1′-yl)-N-[(3,5-difluoropyridin-2-yl)methyl]-1,3-thiazole-5-carboxamide]: the IC50 came out at 6.5 nM.
Turning to `COCCC1CCCN(C2CCN(c3ncc(C(=O)NCc4ncc(F)cc4F)s3)CC2)C1` (racemic) [Example 148, N-[(3,5-difluoropyridin-2-yl)methyl]-2-[3-(2-methoxyethyl)[1,4′-bipiperidin]-1′-yl]-1,3-thiazole-5-carboxamide], the IC50 is 1.3 nM.
On the same count and under the same terms, the result for `CC(C)(C)C1CCCN(C2CCN(c3ncc(C(=O)NCc4ncc(F)cc4F)s3)CC2)C1` (racemic) [Example 149, 2-(3-tert-butyl[1,4′-bipiperidin]-1′-yl)-N-[(3,5-difluoropyridin-2-yl)methyl]-1,3-thiazole-5-carboxamide] reads 35 nM; that for `O=C(NCc1ncc(F)cc1F)c1cnc(N2CCCC(N3CCCC4(CC4)C3)CC2)s1` (racemic) [Example 153, rac-2-[4-(5-Azaspiro[2.5]octan-5-yl)azepan-1-yl]-N-[(3,5-difluoropyridin-2-yl)methyl]-1,3-thiazole-5-carboxamide], 23 nM.
As for `C[C@@H]1CCCN(C2CCN(c3ncc(C(=O)NC[C@H](C)c4ccccc4)s3)CC2)C1` (relative stereo) [Example 83, rel-2-[(3R)-3-methyl[1,4′-bipiperidin]-1′-yl]-N-[(2R)-2-phenylpropyl]-1,3-thiazole-5-carboxamide], the IC50 came out at 98.1 nM.
On to `Cc1ccc([C@@H](C)NC(=O)c2cnc(N3CCC(N4CCC[C@@H](C)C4)CC3)s2)cc1` (relative stereo) [Example 95, rel-2-[(3R)-3-methyl[1,4′-bipiperidin]-1′-yl]-N-[(1R)-1-(4-methylphenyl)ethyl]-1,3-thiazole-5-carboxamide], for which the half-inhibitory concentration (IC50) stood at 800 nM.
As to `CC(NC(=O)c1cnc(N2CCC(N3CCC[C@@H](C)C3)CC2)s1)c1cc(F)ccc1F` (single isomer, unassigned) [Example 46], the IC50 was found to be 8.3 nM.
In the case of `C[C@@H]1CCCN(C2CCN(c3nc(C(=O)NCc4ncc(F)cc4F)cs3)CC2F)C1` (single isomer, unassigned) [Example 157], the IC50 came to 2.7 nM.
Still for that read-out and setting: the result for `C[C@@H]1CCCN(C2CCN(c3nc(C(=O)NCc4ncc(F)cc4F)cs3)CC2F)C1` (single isomer, unassigned) [Example 158] reads 98 nM.
On to `C[C@@H]1CCCN(C2CCN(c3nc(C(=O)NCc4ncc(F)cc4F)co3)CC2F)C1` (single isomer, unassigned) [Example 159], for which the 50% inhibitory concentration (IC50) was 25 nM.
On to `C[C@@H]1CCCN(C2CCN(c3nc(C(=O)NCc4ncc(F)cc4F)co3)CC2F)C1` (single isomer, unassigned) [Example 160], for which the IC50 amounted to 435 nM.
For the compound `CC1CC(N2CCC[C@@H](C)C2)CCN1c1ncc(C(=O)NCc2ncc(F)cc2F)s1` (single isomer, unassigned) [Example 161], the IC50 amounted to 233 nM.
Consider `CCC1CN(c2ncc(C(=O)NCc3ncc(F)cc3F)s2)CCC1N1CCC[C@@H](C)C1` (single isomer, unassigned) [Example 162], for which the IC50 turned out to be 810 nM.
Still for that read-out and setting: the result for `CCC1CN(c2ncc(C(=O)NCc3ncc(F)cc3F)s2)CCC1N1CCC[C@@H](C)C1` (single isomer, unassigned) [Example 163] reads 480 nM.
As to `CC1CN(c2ncc(C(=O)NCc3ncc(F)cc3F)s2)CCC1N1CCC[C@@H](C)C1` (single isomer, unassigned) [Example 164], the 50% inhibitory concentration (IC50) is 24 nM.
Regarding `CC1CN(c2ncc(C(=O)NCc3ncc(F)cc3F)s2)CCC1N1CCC[C@@H](C)C1` (single isomer, unassigned) [Example 165], the concentration for half-maximal inhibition (IC50) came to 410 nM.
With `C[C@@H]1CCCN(C2CCN(c3ncc(C(=O)NCc4cccc(C(F)(F)F)n4)s3)CC2)C1` [Example 32], the IC50 came to 640 nM.
`O=C(NCc1ncc(F)cc1F)c1cnc(N2CCC(N3CCC[C@@H](C(F)(F)F)C3)CC2)s1` [Example 43, N-[(3,5-Difluoropyridin-2-yl)methyl]-2-[(3R)-3-(trifluoromethyl)[1,4′-bipiperidin]-1′-yl]-1,3-thiazole-5-carboxamide]: the IC50 is 261 nM.
The same measure, in the same setting: the figure for `CC(NC(=O)c1cnc(N2CCC(N3CCC[C@@H](C)C3)CC2)s1)c1cc(F)ccc1F` (stereo partly drawn) [Example 47, N-[1-(2,5-Difluorophenyl)ethyl]-2-[(3R)-3-methyl[1,4′-bipiperidin]-1′-yl]-1,3-thiazole carboxamide] is 25 nM; for `C[C@@H]1CCCN(C2CCN(c3ncc(C(=O)Nc4ccc(F)cc4Cl)s3)CC2)C1` [Example 88, N-(2-chloro-4-fluorophenyl)-2-[(3R)-3-methyl[1,4′-bipiperidin]-1′-yl]-1,3-thiazole-5-carboxamide] it is 489 nM; for `C[C@@H]1CCCN(C2CCN(c3ncc(C(=O)N(C)Cc4cccnc4)s3)CC2)C1` [Example 90, N-methyl-2-[(3R)-3-methyl[1,4′-bipiperidin]-1′-yl]-N-(pyridin-3-ylmethyl)-1,3-thiazole-5-carboxamide] it is 971 nM.
Regarding `C[C@@H]1CCCN(C2CCN(c3nnc(C(=O)NCc4ncc(F)cc4F)s3)CC2)C1` [Example 152, N-[(3,5-difluoropyridin-2-yl)methyl]-5-[(3R)-3-methyl[1,4′-bipiperidin]-1′-yl]-1,3,4-thiadiazole-2-carboxamide], the IC50 was found to be 660 nM.
Turning to `O=C(NCc1ncc(F)cc1F)c1cnc(N2CCCC(N3CCCC4(C3)CC4(F)F)CC2)s1` (stereo not drawn) [Example 156, diamix-2-[4-(1,1-Difluoro-5-azaspiro[2.5]octan-5-yl)azepan-1-yl]-N-[(3,5-difluoropyridin-2-yl)-methyl]-1,3-thiazole-5-carboxamide], the IC50 came out at 36 nM.

These data come from patent US12540134B2, “Inhibitors of adrenoreceptor ADRAC2” (Bayer Aktiengesellschaft, priority 2019, dated 2026).
